# In paper PMC6199744, “Development of Chemical Proteomics for the Folateome and Analysis of the Kinetoplastid Folateome” (ACS Infectious Diseases, 2018):
# Read-outs that look alike come from different tables or passages of the source.
# Assays:
# Assay type in all cases: binding
# [1] = target: T1, HeLa cell extract proteins (Homo sapiens, UniProt O60701)
# T1 construct: endogenous in cells; host or cells: HeLa cell extract
# T1 sequence (O60701 1-494): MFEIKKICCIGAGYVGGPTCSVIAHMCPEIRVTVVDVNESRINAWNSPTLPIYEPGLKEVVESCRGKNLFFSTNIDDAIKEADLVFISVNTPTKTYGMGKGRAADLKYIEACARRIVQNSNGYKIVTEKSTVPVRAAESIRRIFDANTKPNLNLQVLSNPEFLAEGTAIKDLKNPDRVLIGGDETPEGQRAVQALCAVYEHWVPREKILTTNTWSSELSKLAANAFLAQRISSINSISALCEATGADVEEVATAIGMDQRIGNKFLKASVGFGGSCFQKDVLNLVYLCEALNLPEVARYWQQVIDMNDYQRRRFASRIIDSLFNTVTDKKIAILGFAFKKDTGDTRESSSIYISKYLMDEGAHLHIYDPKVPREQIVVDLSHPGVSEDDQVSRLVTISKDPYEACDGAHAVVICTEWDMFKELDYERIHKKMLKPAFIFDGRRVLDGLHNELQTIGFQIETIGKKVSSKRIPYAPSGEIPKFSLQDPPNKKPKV
# [2] = target: T2, HeLa cell extract proteins (Homo sapiens, UniProt O95619)
# T2 construct: endogenous in cells; host or cells: HeLa cell extract
# T2 sequence (O95619 whole entry): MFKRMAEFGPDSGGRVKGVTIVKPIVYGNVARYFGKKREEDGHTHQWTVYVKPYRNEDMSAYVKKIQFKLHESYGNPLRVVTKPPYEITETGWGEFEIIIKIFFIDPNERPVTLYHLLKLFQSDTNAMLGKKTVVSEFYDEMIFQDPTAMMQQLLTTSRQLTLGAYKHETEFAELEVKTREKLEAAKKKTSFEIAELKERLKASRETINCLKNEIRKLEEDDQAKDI
# [3] = target: T3, HeLa cell extract proteins (Homo sapiens, UniProt P06733)
# T3 construct: endogenous in cells; host or cells: HeLa cell extract
# T3 sequence (P06733 whole entry): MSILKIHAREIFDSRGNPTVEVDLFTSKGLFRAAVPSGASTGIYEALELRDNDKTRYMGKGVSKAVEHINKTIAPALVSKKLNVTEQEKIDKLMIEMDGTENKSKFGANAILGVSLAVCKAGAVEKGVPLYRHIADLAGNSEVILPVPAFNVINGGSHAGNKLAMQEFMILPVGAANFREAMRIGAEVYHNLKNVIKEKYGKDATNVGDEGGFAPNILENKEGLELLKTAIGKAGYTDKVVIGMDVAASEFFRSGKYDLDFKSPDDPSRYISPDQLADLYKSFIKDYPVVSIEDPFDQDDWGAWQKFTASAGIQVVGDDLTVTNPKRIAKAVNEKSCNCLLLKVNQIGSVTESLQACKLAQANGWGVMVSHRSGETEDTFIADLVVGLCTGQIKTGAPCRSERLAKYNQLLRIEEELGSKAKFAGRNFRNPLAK
# [4] = target: T4, HeLa cell extract proteins (Homo sapiens, UniProt P15104)
# T4 construct: endogenous in cells; host or cells: HeLa cell extract
# T4 sequence (P15104 whole entry): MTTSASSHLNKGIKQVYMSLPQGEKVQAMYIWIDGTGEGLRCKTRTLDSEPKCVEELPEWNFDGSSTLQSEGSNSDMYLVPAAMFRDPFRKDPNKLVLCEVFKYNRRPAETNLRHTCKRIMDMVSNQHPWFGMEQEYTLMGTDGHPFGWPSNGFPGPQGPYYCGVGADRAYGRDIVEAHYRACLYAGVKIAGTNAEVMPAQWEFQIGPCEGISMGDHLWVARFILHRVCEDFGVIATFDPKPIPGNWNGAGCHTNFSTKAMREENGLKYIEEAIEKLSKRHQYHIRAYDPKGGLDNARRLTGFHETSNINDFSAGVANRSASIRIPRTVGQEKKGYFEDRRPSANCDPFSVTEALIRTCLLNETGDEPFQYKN
# [5] = target: T5, HeLa cell extract proteins (Homo sapiens, UniProt P34897)
# T5 construct: endogenous in cells; host or cells: HeLa cell extract
# T5 sequence (P34897 30-504): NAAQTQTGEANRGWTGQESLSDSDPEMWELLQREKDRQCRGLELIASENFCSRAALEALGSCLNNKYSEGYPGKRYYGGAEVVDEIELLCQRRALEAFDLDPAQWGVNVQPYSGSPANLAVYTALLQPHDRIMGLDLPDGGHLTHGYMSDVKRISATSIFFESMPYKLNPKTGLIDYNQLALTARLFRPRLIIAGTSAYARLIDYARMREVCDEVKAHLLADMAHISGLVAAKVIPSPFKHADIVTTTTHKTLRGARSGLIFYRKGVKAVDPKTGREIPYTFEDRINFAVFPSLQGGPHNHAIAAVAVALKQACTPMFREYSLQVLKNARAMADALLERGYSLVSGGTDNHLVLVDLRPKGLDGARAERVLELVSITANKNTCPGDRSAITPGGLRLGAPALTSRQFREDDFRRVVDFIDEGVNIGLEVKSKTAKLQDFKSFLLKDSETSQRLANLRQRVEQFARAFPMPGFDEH
# [6] = target: T6, HeLa cell extract proteins (Homo sapiens, UniProt P42345)
# T6 construct: endogenous in cells; host or cells: HeLa cell extract
# [7] = target: T7, HeLa cell extract proteins (Homo sapiens, UniProt P48643)
# T7 construct: endogenous in cells; host or cells: HeLa cell extract
# T7 sequence (P48643 whole entry): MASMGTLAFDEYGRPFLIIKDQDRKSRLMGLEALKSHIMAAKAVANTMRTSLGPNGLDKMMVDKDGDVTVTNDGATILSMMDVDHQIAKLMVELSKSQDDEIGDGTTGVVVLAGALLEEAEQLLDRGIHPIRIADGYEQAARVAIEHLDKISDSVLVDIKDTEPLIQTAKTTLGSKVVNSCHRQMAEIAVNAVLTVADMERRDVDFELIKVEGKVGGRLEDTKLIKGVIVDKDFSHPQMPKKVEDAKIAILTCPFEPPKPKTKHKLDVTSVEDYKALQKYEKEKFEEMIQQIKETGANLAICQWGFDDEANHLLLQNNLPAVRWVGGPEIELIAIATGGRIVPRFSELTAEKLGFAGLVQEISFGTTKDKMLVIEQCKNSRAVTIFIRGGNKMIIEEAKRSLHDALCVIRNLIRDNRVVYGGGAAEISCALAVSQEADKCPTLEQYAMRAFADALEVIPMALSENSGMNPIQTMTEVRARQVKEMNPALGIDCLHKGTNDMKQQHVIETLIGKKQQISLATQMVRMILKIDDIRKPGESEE
# [8] = target: T8, HeLa cell extract proteins (Homo sapiens, UniProt P54819)
# T8 construct: endogenous in cells; host or cells: HeLa cell extract
# [9] = target: T9, HeLa cell extract proteins (Homo sapiens, UniProt P78371)
# T9 construct: endogenous in cells; host or cells: HeLa cell extract
# T9 sequence (P78371 1-535): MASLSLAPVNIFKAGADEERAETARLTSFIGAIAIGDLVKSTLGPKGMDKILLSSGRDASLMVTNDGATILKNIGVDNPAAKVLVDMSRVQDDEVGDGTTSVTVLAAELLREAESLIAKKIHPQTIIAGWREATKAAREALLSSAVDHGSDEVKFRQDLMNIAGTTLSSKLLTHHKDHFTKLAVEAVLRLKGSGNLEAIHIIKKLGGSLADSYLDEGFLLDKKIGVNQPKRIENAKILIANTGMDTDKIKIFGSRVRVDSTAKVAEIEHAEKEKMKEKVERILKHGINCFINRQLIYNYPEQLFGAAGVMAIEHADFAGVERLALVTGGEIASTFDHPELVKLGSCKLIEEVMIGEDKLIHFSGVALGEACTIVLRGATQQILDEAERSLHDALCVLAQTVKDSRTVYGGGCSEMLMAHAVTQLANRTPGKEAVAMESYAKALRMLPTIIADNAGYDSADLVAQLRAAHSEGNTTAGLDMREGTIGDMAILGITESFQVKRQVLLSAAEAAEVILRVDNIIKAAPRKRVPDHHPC
# [10] = target: T10, HeLa cell extract proteins (Homo sapiens, UniProt Q00610)
# T10 construct: endogenous in cells; host or cells: HeLa cell extract
# T10 sequence (Q00610 whole entry): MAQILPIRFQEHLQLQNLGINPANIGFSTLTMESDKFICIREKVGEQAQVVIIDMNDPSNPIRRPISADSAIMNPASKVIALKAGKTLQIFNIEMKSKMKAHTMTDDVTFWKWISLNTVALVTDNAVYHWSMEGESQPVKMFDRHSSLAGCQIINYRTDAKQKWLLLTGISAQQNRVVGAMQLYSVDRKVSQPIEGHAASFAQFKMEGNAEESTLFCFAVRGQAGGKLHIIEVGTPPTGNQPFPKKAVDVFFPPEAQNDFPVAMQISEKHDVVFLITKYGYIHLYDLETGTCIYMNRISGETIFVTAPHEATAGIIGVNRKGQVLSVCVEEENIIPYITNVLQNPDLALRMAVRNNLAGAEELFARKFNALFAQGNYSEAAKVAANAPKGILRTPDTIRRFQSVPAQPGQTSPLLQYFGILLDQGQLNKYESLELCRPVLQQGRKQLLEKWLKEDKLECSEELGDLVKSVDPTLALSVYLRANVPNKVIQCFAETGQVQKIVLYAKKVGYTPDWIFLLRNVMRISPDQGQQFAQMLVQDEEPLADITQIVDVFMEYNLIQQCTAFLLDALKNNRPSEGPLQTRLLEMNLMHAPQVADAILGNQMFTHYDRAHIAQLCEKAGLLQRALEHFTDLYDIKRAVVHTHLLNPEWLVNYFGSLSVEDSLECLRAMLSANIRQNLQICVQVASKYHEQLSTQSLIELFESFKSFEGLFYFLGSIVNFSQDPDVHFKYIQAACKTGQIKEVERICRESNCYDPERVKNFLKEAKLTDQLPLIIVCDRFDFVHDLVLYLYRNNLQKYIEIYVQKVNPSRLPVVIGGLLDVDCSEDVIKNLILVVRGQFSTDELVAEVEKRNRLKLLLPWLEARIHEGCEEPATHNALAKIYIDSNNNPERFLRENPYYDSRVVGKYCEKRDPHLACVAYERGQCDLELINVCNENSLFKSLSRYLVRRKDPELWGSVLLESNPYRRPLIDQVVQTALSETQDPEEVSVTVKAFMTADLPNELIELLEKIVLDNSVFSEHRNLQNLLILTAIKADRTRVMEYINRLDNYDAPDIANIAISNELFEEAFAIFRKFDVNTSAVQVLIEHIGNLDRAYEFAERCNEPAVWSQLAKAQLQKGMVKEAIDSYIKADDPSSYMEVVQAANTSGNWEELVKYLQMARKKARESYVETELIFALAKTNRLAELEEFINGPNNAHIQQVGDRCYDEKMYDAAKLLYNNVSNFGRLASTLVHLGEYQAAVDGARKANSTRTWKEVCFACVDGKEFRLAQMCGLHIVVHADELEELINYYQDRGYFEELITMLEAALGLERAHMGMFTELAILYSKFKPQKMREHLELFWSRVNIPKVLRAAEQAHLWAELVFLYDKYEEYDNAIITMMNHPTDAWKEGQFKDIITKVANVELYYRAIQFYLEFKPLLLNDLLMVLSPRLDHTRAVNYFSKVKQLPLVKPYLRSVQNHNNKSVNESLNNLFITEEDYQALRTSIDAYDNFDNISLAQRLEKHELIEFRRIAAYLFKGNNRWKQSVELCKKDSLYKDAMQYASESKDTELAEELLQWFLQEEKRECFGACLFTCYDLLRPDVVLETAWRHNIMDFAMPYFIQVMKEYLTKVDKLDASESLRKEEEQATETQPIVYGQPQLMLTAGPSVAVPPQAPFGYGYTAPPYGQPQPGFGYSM
# [11] = target: T11, HeLa cell extract proteins (Homo sapiens, UniProt Q13162)
# T11 construct: endogenous in cells; host or cells: HeLa cell extract
# T11 sequence (Q13162 38-271): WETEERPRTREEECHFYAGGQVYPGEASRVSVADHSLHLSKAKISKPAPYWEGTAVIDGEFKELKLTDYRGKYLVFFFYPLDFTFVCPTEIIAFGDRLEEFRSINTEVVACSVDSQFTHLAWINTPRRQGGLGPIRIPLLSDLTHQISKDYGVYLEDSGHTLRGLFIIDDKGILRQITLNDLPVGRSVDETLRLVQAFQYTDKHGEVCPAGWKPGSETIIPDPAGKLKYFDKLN
# [12] = target: T12, HeLa cell extract proteins (Homo sapiens, UniProt Q99613)
# T12 construct: endogenous in cells; host or cells: HeLa cell extract
# T12 sequence (Q99613 whole entry): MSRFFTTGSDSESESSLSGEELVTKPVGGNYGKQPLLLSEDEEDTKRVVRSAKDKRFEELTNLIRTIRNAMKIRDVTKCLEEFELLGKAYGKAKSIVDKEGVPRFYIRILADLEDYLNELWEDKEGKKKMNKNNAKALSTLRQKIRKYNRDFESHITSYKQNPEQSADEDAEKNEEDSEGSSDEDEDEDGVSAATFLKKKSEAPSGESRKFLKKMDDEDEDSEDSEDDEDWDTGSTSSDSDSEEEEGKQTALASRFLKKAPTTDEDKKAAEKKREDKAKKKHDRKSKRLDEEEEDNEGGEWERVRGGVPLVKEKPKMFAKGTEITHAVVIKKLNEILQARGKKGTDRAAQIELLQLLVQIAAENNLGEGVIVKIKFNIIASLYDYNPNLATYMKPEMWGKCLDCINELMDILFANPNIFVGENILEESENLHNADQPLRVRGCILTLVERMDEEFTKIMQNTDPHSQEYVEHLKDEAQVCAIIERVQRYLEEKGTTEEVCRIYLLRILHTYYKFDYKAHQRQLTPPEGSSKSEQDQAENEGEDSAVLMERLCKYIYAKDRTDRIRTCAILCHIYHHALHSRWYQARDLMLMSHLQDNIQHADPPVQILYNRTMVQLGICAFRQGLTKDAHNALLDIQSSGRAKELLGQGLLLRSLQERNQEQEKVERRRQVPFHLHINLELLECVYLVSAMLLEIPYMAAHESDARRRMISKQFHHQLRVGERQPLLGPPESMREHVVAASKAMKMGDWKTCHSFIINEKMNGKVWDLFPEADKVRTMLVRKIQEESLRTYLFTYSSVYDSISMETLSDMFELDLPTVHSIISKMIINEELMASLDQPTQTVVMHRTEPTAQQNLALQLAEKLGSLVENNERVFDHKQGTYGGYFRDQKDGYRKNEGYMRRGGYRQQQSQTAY
# [13] = target: T13, HeLa cell extract proteins (Homo sapiens, UniProt Q99623)
# T13 construct: endogenous in cells; host or cells: HeLa cell extract
# T13 sequence (Q99623 whole entry): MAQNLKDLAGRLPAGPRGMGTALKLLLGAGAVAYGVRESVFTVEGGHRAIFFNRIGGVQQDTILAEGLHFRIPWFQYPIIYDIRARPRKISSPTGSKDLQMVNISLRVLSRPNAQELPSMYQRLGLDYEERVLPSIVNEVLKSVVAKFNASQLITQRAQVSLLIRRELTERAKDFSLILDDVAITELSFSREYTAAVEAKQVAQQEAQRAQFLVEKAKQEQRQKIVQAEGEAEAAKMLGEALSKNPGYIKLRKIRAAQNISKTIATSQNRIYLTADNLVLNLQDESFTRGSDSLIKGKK
# [14] = target: T14, HeLa cell extract proteins (Homo sapiens, UniProt Q99720)
# T14 construct: endogenous in cells; host or cells: HeLa cell extract
# T14 sequence (Q99720 whole entry): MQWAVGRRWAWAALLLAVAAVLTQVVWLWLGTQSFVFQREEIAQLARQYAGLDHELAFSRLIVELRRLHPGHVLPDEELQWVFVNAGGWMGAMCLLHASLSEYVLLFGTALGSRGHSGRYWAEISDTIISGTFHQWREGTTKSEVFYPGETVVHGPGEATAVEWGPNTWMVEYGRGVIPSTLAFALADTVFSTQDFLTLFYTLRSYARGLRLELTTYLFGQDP
# [15] = HeLa, protein CLTC (ISOFORM 1 OF CLATHRIN HEAVY CHAIN 1)
# [16] = HeLa, protein PRDX4 (PEROXIREDOXIN-4)
# [17] = HeLa, protein ENO1 (ISOFORM ALPHA-ENOLASE OF ALPHA-ENOLASE.)
# [18] = HeLa, protein CCT5 (T-COMPLEX PROTEIN 1 SUBUNIT EPSILON.)
SMILES,"fold changes relative to vehicle control ([1]; HeLa, protein UGDH)","fold changes relative to vehicle control ([2]; HeLa, captured protein YEATS4)","fold changes relative to vehicle control ([3]; HeLa, protein ENO1)","fold changes relative to vehicle control ([4]; HeLa, protein GLUL)","fold changes relative to vehicle control ([5]; HeLa, protein SHMT2)","fold changes relative to vehicle control ([6]; HeLa, captured protein mTOR)","fold changes relative to vehicle control ([7]; HeLa, protein CCT5)","fold changes relative to vehicle control ([8]; protein AK2, HeLa)","fold changes relative to vehicle control ([9]; HeLa, protein CCT2)","fold changes relative to vehicle control [10, 15]","fold changes relative to vehicle control [11, 16]","fold changes relative to vehicle control ([12]; protein EIF3C, HeLa)","fold changes relative to vehicle control ([13]; protein PHB2, HeLa)","fold changes relative to vehicle control ([14]; HeLa, protein SIGMAR1)","fold changes relative to vehicle control ([1]; protein UGDH, HeLa)","fold changes relative to vehicle control ([2]; HeLa, protein YEATS4)","fold changes relative to vehicle control [3, 17]","fold changes relative to vehicle control ([4]; captured protein GLUL, HeLa)","fold changes relative to vehicle control ([6]; captured protein mTOR, HeLa)","fold changes relative to vehicle control [7, 18]",other results
"Nc1nc2c(c(=O)[nH]1)N(C=O)C(CNc1ccc(C(=O)N[C@@H](CCC(=O)O)C(=O)O)cc1)CN2 (some centres unmarked) [LEU, leucovorin]",1.16,1.09,1.07,0.62,1.01,1.05,1.05,0.99,1.05,1.27,1.09,1.02,0.85,1.04,,,,,,,
"Nc1nc2[nH]cc(CCc3ccc(C(=O)N[C@@H](CCC(=O)O)C(=O)O)cc3)c2c(=O)[nH]1 [PTX, pemetrexed]",,,,,,,,,,,,,,,,,,,,,fold changes relative to vehicle control [1]: 1.21; fold changes relative to vehicle control [2]: 0.99; fold changes relative to vehicle control [3]: 1.14; fold changes relative to vehicle control [4]: 0.84; fold changes relative to vehicle control [5]: 1.13; fold changes relative to vehicle control [6]: 0.99; fold changes relative to vehicle control [7]: 1.13; fold changes relative to vehicle control [8]: 0.86; fold changes relative to vehicle control [9]: 1.11; fold changes relative to vehicle control [10]: 1.24; fold changes relative to vehicle control [11]: 0.96; fold changes relative to vehicle control [12]: 0.94; fold changes relative to vehicle control [13]: 0.86; fold changes relative to vehicle control [14]: 0.99
CCCCCCOc1ccc(Cc2cnc(N)nc2N)cc1 [compound 1],,,,,0.8,,,,,,,1.1,,0.99,1.13,1.04,1.47 fold,0.97,0.89,1.41 fold,"fold changes relative to vehicle control ([8]; captured protein AK2, HeLa): 1.04; fold changes relative to vehicle control ([9]; protein CCT2, HeLa): 1.33; fold changes relative to vehicle control ([10]; protein CLTC, HeLa): 0.83; fold changes relative to vehicle control ([11]; HeLa, protein PRDX4): 1.08; fold changes relative to vehicle control ([13]; HeLa, protein PHB2): 0.95"
CCCCCCOc1cccc(Cc2cnc(N)nc2N)c1 [compound 2],,,,,1.53,,,,,,,1.19,,0.99,1.76,0.92,2.6 fold,1.02,1.1,1.97 fold,"fold changes relative to vehicle control ([8]; captured protein AK2, HeLa): 1; fold changes relative to vehicle control ([9]; protein CCT2, HeLa): 1.75; fold changes relative to vehicle control ([10]; protein CLTC, HeLa): 1.07; fold changes relative to vehicle control ([11]; HeLa, protein PRDX4): 0.93; fold changes relative to vehicle control ([13]; HeLa, protein PHB2): 0.91"
Nc1nc2cccc(-c3ccccc3)c2n1Cc1ccc(Cl)c(Cl)c1 [compound 3],,,,,0.92,,,,,,,1.08,,1.1,0.78,0.99,0.84 fold,0.88,1.01,1.18 fold,"fold changes relative to vehicle control ([8]; captured protein AK2, HeLa): 0.91; fold changes relative to vehicle control ([9]; protein CCT2, HeLa): 1.13; fold changes relative to vehicle control ([10]; protein CLTC, HeLa): 1.2; fold changes relative to vehicle control ([11]; HeLa, protein PRDX4): 0.99; fold changes relative to vehicle control ([13]; HeLa, protein PHB2): 1.04"
NCCOCCOCC(=O)Nc1nc2ncc(CNc3ccc(C(=O)NC(CCC(=O)O)C(=O)O)cc3)nc2c(=O)[nH]1 (centres unmarked) [compound 6],1.41,0.81,1.26,0.81,1.3,1.15,1.29,0.95,1.23,1.11,0.92,1.02,0.95,0.96,,,,,,,
NCCCNc1ccc(C(=O)NC(CCC(=O)O)C(=O)O)cc1 (centres unmarked) [compound 7],0.9,1.29,0.9,1.07,1.02,1.2,1.03,1.08,0.95,1.18,0.99,0.88,1,1.05,,,,,,,
